One data set deals with T1, hERG (Homo sapiens, UniProt Q12809).
T1 construct: expressed in transfected cells; host or cells: Chinese Hamster Ovary cells (hERG-CHO), stably transfected
As to the kind of experiment: hERG Ion Channel Assay (Q-patch, hERG-CHO cells). The conditions noted are these: human, CHO cells stably transfected with hERG (hERG-CHO), pH 7.4, 30 μM. It is filed as cell-based. As to the method: The activity of the compounds against the hERG ion channel was tested. The assay was conducted using the automated path-clamp, Q-patch method using stably transfected Chinese Hamster Ovary cells (hERG-CHO). hERG-CHO cells were cultured in F-12 Kaighn's Nutrient Mixture medium (Invitrogen)+10% FBS at 37° C. for 1-3 days. Cells were kept at 30° C. for 24 to 48 hours prior to patch clamping in order to increase the hERG current amplitude. Subsequently, the cells were harvested by trypsinisation, and kept in Serum Free Medium (SFM) in the Q-patch cell preparation state for up to 6 hours at room temperature before being washed and re-suspended in extracellular solution and applied to the patch clamp sites for data recording.
Patch-clamp voltage protocol: After whole cell configuration was achieved, the cell was held at −80 mV. A 50 millisecond pulse to −40 mV was delivered to measure the leaking current, which was subtracted from the tail current on-line. Then the cell was depolarized to +20 mV for 2 seconds, followed by a one second pulse to −40 mV to reveal hERG tail current. This paradigm was delivered once every 5 seconds to monitor the current amplitude.
Extracellular solution: 137 mM NaCl, 4 mM KCl, 1.8 mM CaCl2, 1 mM MgCl2, 10 mM D(+)-glucose, 10 mM HePES buffer (pH adjusted to 7.4 with NaOH).
After the whole cell configuration was achieved, the extracellular solution (control) was applied first and the cell was stabilized for 2 minutes in extracellular solution. The test compound was then applied from low concentrations to high concentrations cumulatively. The cell was incubated with each test concentration for 5 minutes. During each incubation, the cell was repetitively stimulated using the voltage protocol described above, and the tail current amplitude was continuously monitored.
• (1) Peak tail current >100 pA in control. • (2) Initial run-down <30% and the run-down stops before first application of the test compound. • (3) Leak currents <50% of the control peak tail currents at any time. • (4) rs<20 MΩ throughout the experiment.
The degree of inhibition (%) was obtained by measuring the tail current amplitude, induced by a one second test pulse to −40 mV after a two second pulse to +20 mV, before and after incubation with the test compound. The difference in current was normalized to control and multiplied by 100 in order to obtain the percent inhibition.
Concentration (log) response curves were fitted to a logistic equation (three parameters assuming complete block of the current at very high test compound concentrations) to generate estimates of the 50% inhibitory concentration (IC50). The concentration-response relationship of each compound was constructed from the percentage reductions of current amplitude by sequential concentrations.
For orientation: Block of hERG is tested as a sign of cardiac risk.

Data set [1] is described as follows: Aqueous (FaSSIF) solubility. The format is physicochemical. The conditions noted are these: fasted state simulated intestinal fluid (FaSSIF); for solubility at 16 h: kinetic from dmso stock, pH 6.5, three replicates, read-out: Solubility (1); for solubility: pH 6.8, two replicates, read-out: Solubility (2). Here is the method:
Solubility was measured by equilibration of the compound in fasted state simulated intestinal fluid (FaSSIF) and quantified by high-performance liquid chromatography (HPLC).
Aqueous solubility was measured by equilibration of compounds with fasted state simulated intestinal fluid (FaSSIF) and quantified spectrophotometrically.
FaSSIF was prepared as described below:
Preparation of blank FaSSIF: 0.21 g of sodium hydroxide (NaOH) pellets, 1.97 g of dihydrogen sodium phosphate (NaH2PO4.2H2O) and 3.09 g of sodium chloride (NaCl) were dissolved in 400 mL of deionised water. […]
Preparation of FaSSIF: 0.056 g of SIF Powder (containing sodium taurocholate and lecithin) (Phares AG) was dissolved in 25 mL of blank FaSSIF and stirred until the powder was completely dissolved. The solution was allowed to stand for 2 hours during which it became opalescent; it was used within 24 hours. The final solution composition was characterised as follows: • Sodium taurocholate: 3 mM • Lecithin: 0.75 mM • Osmolarity: 270±10 mOsmol • pH: 6.5
The optical density was measured at the end of the incubation period for test compounds and a reference used to determine solubility. In brief, two samples were prepared for each determination: a reference sample consisting of a stock solution of test compound in DMSO diluted in system solution (a phosphate free, low absorption buffer) and propanol; and a test sample (prepared in triplicate) consisting of 0.5 mL FaSSIF spiked with test compound at 0.2 mM. Each sample was incubated at room temperature for 16 hours with constant shaking at 250 rpm. At the end of the incubation period, 0.3 mL of each sample was filtered through a pION filter plate (PION, Woburn Mass.), diluted 1:1 with propanol and scanned using UV spectrophotometry at λmax ([…]) using a Spectra Max Plus—Version 2.1000 (Molecular Devices, Sunnyvale, Calif.), with μSOL Explorer solubility determination software (pION, Woburn, Mass.).
FaSSIF solubility was calculated using the following formula:
[formula] wherein: • “OD” is the optical density; • “Cr” is the concentration of the reference (33.4 μM); and • “molecular weight” is for the test compound (e.g., 381.44 for ABD735).

Drawing on patent US9624167B2, “N-(4-hydroxy-4-methyl-cyclohexyl)-4-phenyl-benzenesulfonamides and N-(4-hydroxy-4-methyl-cyclohexyl)-4-(2-pyridyl)benzenesulfonamides and their therapeutic use” (PIMCO 2664 LIMITED, priority 2013, dated 2017), this text covers inhibition and solubility for 20 molecules.

Converted amounts (≈) assume the structure as drawn. A value given as a limit tells only on which side of the number the result lay.

What is called inhibition is the share of the control response that was lost under treatment. A higher inhibition goes with a strong effect. As a reminder, the solubility is the dissolved amount per volume that the medium holds.

T1 sequence (Q12809 whole entry): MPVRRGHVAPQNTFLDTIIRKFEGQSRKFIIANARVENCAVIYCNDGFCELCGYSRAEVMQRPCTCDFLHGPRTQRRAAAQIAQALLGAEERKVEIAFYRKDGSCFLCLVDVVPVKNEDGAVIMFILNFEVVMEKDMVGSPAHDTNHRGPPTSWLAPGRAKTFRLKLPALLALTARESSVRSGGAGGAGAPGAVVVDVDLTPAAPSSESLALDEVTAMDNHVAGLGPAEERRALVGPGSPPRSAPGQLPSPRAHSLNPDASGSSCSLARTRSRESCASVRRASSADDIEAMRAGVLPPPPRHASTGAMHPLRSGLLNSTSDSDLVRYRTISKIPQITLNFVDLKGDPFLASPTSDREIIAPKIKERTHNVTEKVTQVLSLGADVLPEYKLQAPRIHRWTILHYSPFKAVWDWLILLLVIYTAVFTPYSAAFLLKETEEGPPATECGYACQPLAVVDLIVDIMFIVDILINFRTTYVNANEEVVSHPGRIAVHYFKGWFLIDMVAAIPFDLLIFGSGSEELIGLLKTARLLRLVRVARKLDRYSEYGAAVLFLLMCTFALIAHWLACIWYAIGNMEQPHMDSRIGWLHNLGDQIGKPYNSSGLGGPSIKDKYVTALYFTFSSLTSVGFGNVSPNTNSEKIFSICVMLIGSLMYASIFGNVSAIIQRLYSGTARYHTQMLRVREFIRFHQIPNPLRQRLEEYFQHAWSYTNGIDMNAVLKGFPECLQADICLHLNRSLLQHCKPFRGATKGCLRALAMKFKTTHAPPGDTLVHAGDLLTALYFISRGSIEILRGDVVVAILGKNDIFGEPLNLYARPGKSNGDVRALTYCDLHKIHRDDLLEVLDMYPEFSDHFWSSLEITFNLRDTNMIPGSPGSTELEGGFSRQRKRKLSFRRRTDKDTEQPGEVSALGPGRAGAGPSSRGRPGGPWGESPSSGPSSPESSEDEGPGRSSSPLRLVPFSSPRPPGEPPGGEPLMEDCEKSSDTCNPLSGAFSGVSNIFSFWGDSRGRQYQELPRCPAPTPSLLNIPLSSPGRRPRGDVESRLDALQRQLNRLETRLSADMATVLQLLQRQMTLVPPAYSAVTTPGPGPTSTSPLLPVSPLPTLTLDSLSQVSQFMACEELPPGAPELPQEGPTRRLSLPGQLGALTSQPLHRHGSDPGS

On hERG (hERG tail current), `Cc1cc(S(=O)(=O)NC2CCC(C)(O)CC2)ccc1-c1ccc(F)cc1F` (single isomer, unassigned) [REF001, reference compound] yielded an inhibition at 5 min, 30 µM of 60%. Also, the solubility at 16 h in data set [1] is 0.05 mg/mL (≈ 126 µM).
On to `Cc1cc(S(=O)(=O)N[C@H]2CC[C@H](O)CC2)ccc1-c1ccc(F)cc1F` [ABD735], for which, on hERG (hERG tail current), the inhibition at 5 min, 30 µM was 62.5%. In addition, in data set [1], the solubility at 16 h was 0.02 mg/mL (≈ 52.4 µM).
For `O=S(=O)(N[C@H]1CC[C@H](O)CC1)c1ccc(-c2ncc(Cl)cc2Cl)cc1` [ABD836, reference compound] the same measures were 50% and 0.03 mg/mL (≈ 74.8 µM).
On to `C[C@]1(O)CC[C@@H](NS(=O)(=O)c2ccc(-c3ccc(F)cc3F)cc2)CC1` [ABD899, reference compound], for which the inhibition at 5 min, 30 µM against hERG (a lab-scale batch was tested) is 100%; against hERG (a mid-scale batch was tested) it was 53%. In addition, in data set [1], the solubility at 16 h is 0.06 mg/mL (≈ 157 µM). Further, in data set [1], the solubility was 0.13 mg/mL (≈ 341 µM).
In turn, `C[C@]1(O)CC[C@H](NS(=O)(=O)c2ccc(-c3ccc(F)cc3F)cc2)CC1` [ABD900, reference compound] returned an inhibition at 5 min, 30 µM against hERG (hERG tail current) of 51%. The solubility in data set [1] is 0.12 mg/mL (≈ 315 µM).
For `C[C@]1(O)CC[C@H](NS(=O)(=O)c2ccc(-c3ccc(Cl)cc3C#N)cc2)CC1` [HMC-C-01-A, 4′-Chloro-2′-cyano-N-((1r,4r)-4-hydroxy-4-methylcyclohexyl)biphenyl-4-sulfonamide], the inhibition at 5 min, 30 µM at hERG (hERG tail current) was 79%. Further, in data set [1], the solubility at 16 h is 0.06 mg/mL (≈ 148 µM).
In turn, `C[C@]1(O)CC[C@@H](NS(=O)(=O)c2ccc(-c3ccc(Cl)cc3C#N)cc2)CC1` [HMC-C-01-B, 4′-Chloro-2′-cyano-N-((1s,4s)-4-hydroxy-4-methylcyclohexyl)-[1,1′-biphenyl]-4-sulfonamide] came in with an inhibition at 5 min, 30 µM at hERG (hERG tail current) of 74%. Besides, in data set [1], the solubility is 0.08 mg/mL (≈ 198 µM).
For `C[C@]1(O)CC[C@H](NS(=O)(=O)c2ccc(-c3ccc(F)cc3C(F)(F)F)cc2)CC1` [HMC-C-02-A, 4′-Fluoro-N-((1r,4r)-4-hydroxy-4-methylcyclohexyl)-2′-(trifluoromethyl)biphenyl-4-sulfonamide], the inhibition at 5 min, 30 µM against hERG (hERG tail current) was 57%. Besides, in data set [1], the solubility at 16 h was 0.04 mg/mL (≈ 92.7 µM).
Regarding `C[C@]1(O)CC[C@@H](NS(=O)(=O)c2ccc(-c3ccc(F)cc3C(F)(F)F)cc2)CC1` [HMC-C-02-B, 4′-Fluoro-N-((1s,4s)-4-hydroxy-4-methylcyclohexyl)-2′-(trifluoromethyl)-[1,1′-biphenyl]-4-sulfonamide], on hERG (hERG tail current), the inhibition at 5 min, 30 µM stood at 94%. Also, the solubility in data set [1] was 0.07 mg/mL (≈ 162 µM).
Turning to `C[C@]1(O)CC[C@H](NS(=O)(=O)c2ccc(-c3c(F)cc(F)cc3F)cc2)CC1` [HMC-C-03-A, 2′,4′,6′-Trifluoro-N-((1r,4r)-4-hydroxy-4-methylcyclohexyl)biphenyl-4-sulfonamide], the inhibition at 5 min, 30 µM on hERG (hERG tail current) is 45%. Further, the solubility at 16 h in data set [1] is 0.03 mg/mL (≈ 75.1 µM).
`C[C@]1(O)CC[C@@H](NS(=O)(=O)c2ccc(-c3c(F)cc(F)cc3F)cc2)CC1` [HMC-C-03-B, 2′,4′,6′-Trifluoro-N-((1s,4s)-4-hydroxy-4-methylcyclohexyl)-[1,1′-biphenyl]-4-sulfonamide]: the inhibition at 5 min, 30 µM on hERG (hERG tail current) was 36%. Also, the solubility in data set [1] was 0.15 mg/mL (≈ 376 µM).
At hERG (hERG tail current), `C[C@]1(O)CC[C@H](NS(=O)(=O)c2ccc(-c3ccc(F)cc3F)c(F)c2)CC1` [HMC-C-04-A, 2,2′,4′-Trifluoro-N-((1r,4r)-4-hydroxy-4-methylcyclohexyl)-[1,1′-biphenyl]-4-sulfonamide] gave an inhibition at 5 min, 30 µM of 69%. In addition, the solubility in data set [1] is 0.08 mg/mL (≈ 200 µM).
`C[C@]1(O)CC[C@@H](NS(=O)(=O)c2ccc(-c3ccc(F)cc3F)c(F)c2)CC1` [HMC-C-04-B, 2,2′,4′-Trifluoro-N-((1s,4s)-4-hydroxy-4-methylcyclohexyl)-[1,1′-biphenyl]-4-sulfonamide]: the solubility in data set [1] was 0.13 mg/mL (≈ 325 µM).
On hERG (hERG tail current), `C[C@]1(O)CC[C@H](NS(=O)(=O)c2ccc(-c3ncc(F)cc3F)c(F)c2)CC1` [HMC-N-01-A, 4-(3,5-Difluoropyridin-2-yl)-3-fluoro-N-((1r,4r)-4-hydroxy-4-methylcyclohexyl)benzenesulfonamide] had an inhibition at 5 min, 30 µM of 2%. Also, the solubility at 16 h in data set [1] is 0.03 mg/mL (≈ 74.9 µM).
Consider `C[C@]1(O)CC[C@@H](NS(=O)(=O)c2ccc(-c3ncc(F)cc3F)c(F)c2)CC1` [HMC-N-01-B, 4-(3,5-Difluoropyridin-2-yl)-3-fluoro-N-((1s,4s)-4-hydroxy-4-methylcyclohexyl)benzenesulfonamide], for which the inhibition at 5 min, 30 µM against hERG (hERG tail current) is 27%. Besides, the solubility in data set [1] is 0.12 mg/mL (≈ 300 µM).
With `C[C@]1(O)CC[C@H](NS(=O)(=O)c2ccc(-c3ncc(F)cc3F)cc2)CC1` [HMC-N-02-A, 4-(3,5-Difluoropyridin-2-yl)-N-((1r,4r)-4-hydroxy-4-methylcyclohexyl)benzenesulfonamide], the inhibition at 5 min, 30 µM against hERG (hERG tail current) was 31%. Moreover, the solubility at 16 h in data set [1] is 0.02 mg/mL (≈ 52.3 µM).
`C[C@]1(O)CC[C@@H](NS(=O)(=O)c2ccc(-c3ncc(F)cc3F)cc2)CC1` [HMC-N-02-B, 4-(3,5-Difluoropyridin-2-yl)-N-((1s,4s)-4-hydroxy-4-methylcyclohexyl)benzenesulfonamide]: the inhibition at 5 min, 30 µM at hERG (hERG tail current) was 23%. Besides, in data set [1], the solubility is 0.12 mg/mL (≈ 314 µM).
The molecule `C[C@]1(O)CC[C@H](NS(=O)(=O)c2ccc(-c3ncc(Cl)cc3Cl)cc2)CC1` [HMC-N-03-A, 4-(3,5-Dichloropyridin-2-yl)-N-((1r,4r)-4-hydroxy-4-methylcyclohexyl)benzenesulfonamide] came in with an inhibition at 5 min, 30 µM against hERG (hERG tail current) of 13%. Moreover, in data set [1], the solubility at 16 h is over 0.08 mg/mL.
The molecule `C[C@]1(O)CC[C@@H](NS(=O)(=O)c2ccc(-c3ncc(Cl)cc3Cl)cc2)CC1` [HMC-N-03-B, 4-(3,5-Dichloropyridin-2-yl)-N-((1s,4s)-4-hydroxy-4-methylcyclohexyl)benzenesulfonamide] came in with an inhibition at 5 min, 30 µM on hERG (hERG tail current) of 47%. The solubility in data set [1] is 0.1 mg/mL (≈ 241 µM).
Take `C[C@]1(O)CC[C@H](NS(=O)(=O)c2ccc(-c3ncc(Cl)cc3Cl)c(F)c2)CC1` [HMC-N-04-A, 4-(3,5-Dichloropyridin-2-yl)-3-fluoro-N-((1r,4r)-4-hydroxy-4-methylcyclohexyl)benzenesulfonamide]: at hERG (hERG tail current), the inhibition at 5 min, 30 µM came to 26%. Further, the solubility at 16 h in data set [1] was 0.06 mg/mL (≈ 138 µM).
